Entries after “also recorded” stand apart in the source; their conditions may differ.
Tests used:
[1] = Leshchenko et al., 2006; cited from earlier work
[2] = test system: Cln3−/− MBECs; assay: Fluid-phase endocytosis, uptake of fluorescent dextran; format: cell-based, mouse; details: 25 μM CBX for 30 minutes
Method: FIG. 5. Correction of fluid-phase endocytosis by CBX. Hoechst 33342 to label DNA (blue) and saline (mock) or 25 μM CBX was added to cell culture media for 30 minutes. Fluid-phase endocytic uptake in the presence of CBX or PBS was determined by uptake of fluorescent dextran (green). Extracellular dextran was quenched by Red-40 and cells were imaged by epifluorescence. ImageJ was used to calculate fluorescence intensity. Data represent the mean of three independent experiments, error bars±SEM (1-way ANOVA with TUKEY post-hoc, ***, p<0.0001). Scale bar=10 μm.

[3] = test system: Cln3−/− mice; assay: Autofluorescent inclusions in cingulate cortex brain sections; format: in vivo, mouse; details: gavage 20 mg/kg daily for two weeks, p<0.05
Excerpt: FIG. 11: CBX treatment reduces Cln3^−/− autofluorescent inclusions. Thin (50 μm) brain sections from mice treated as in were imaged under low magnification in the red channel to detect autofluorescence. Four images were taken of each cingulate cortex, and fluorescence intensity averaged in ImageJ. Data represent a minimum of 4 mice per group. Error bars±SEM (1-way ANOVA with TUKEY post-hoc, *, p<0.05) Scale bar=200 μm.

[4] = test system: caveolin-1; assay: Caveolin-1 transport to the cell membrane, immunofluorescence; format: cell-based, mouse; details: CLN3−/− MBEC, 25 μM for 2 h
Method: FIG. 6. Carbenoxolone restores caveolin-1 transport to the cell membrane in CLN3-null JNCL mouse brain endothelial cells. CLN3-expressing (CLN3-R) and CLN3-null (CLN3−/−) MBEC were untreated or cultured with 25 μM carbenoxolone for 2 h, then immunofluorescently stained for caveolin-1. Without treatment, caveolin-1 transport to the plasma membrane is impaired in CLN3−/− MBEC. Carbenoxolone restores normal caveolin-1 trafficking to the plasma membrane.

[5] = test system: plasma membrane cholesterol; assay: Cholesterol distribution at the plasma membrane, Amplex Red Cholesterol assay; format: cell-based, mouse; details: CBX 25 μM for 2 hours vs mock
Method: Plasma membranes are detergent-free fractionated and cholesterol levels in each fraction are quantified by the Amplex Red® Cholesterol assay kit. A representative experiment from four independent experiments is shown with CBX 25 μM for 2 hours or mock treatment.

[6] = test system: CLN3-null JNCL mouse brain endothelial cells; assay: Scratch wound cell migration, live cell microscopy; format: cell-based; details: CLN3−/− MBEC, CBX vs mock, overnight
Method: FIG. 4. Carbenoxolone normalizes migration of CLN3-null JNCL mouse brain endothelial cells. Cell migration induced by a scratch in cell monolayers was measured using live cell microscopy and quantified by T-Scratch software. CLN3-expressing (CLN3-R) and CLN3-null (CLN3-/-) MBEC were grown to confluence. A gap in the monolayer was made by “[…] wound”, and the rate of cell migration to fill in the gap was monitored by live cell microscopy. CLN3-/- MBEC show a delayed ability to fill in the gap. Carbenoxolone treatment corrects this defect. Cells were either treated with CBX or left untreated (mock) in the presence or absence of CBX. Data are collected overnight. Data represent the mean of three independent experiments, error bars±SEM (2-way ANOVA with Bonferroni post-hoc correction, *, p<0.05).

[7] = test system: Cdc42; assay: Cdc42 activity (Cdc42-GTP levels) in mouse brain endothelial cells; format: cell-based; details: for Cdc42 activity: CLN3−/− MBEC, p<0.05
Excerpt: FIGS. 2A and 2B. Carbenoxolone reduces Cdc42 activity in CLN3-null JNCL mouse brain endothelial cells (MBEC). […] FIG. 3: CBX corrects Cdc42-GTP levels. […] Data represent the mean of three independent experiments, error bars±SEM (1-way ANOVA with TUKEY post-hoc, (*, p<0.05, n.s.=not significant).

## CC1(C)[C@@H](OC(=O)CCC(=O)O)CC[C@]2(C)[C@H]3C(=O)C=C4[C@@H]5C[C@@](C)(C(=O)O)CC[C@]5(C)CC[C@@]4(C)[C@]3(C)CC[C@@H]12 [CBX, carbenoxolone]
[1]
  Ability to pass the blood-brain barrier (BBB): little or no ability
[2]
  Fluid-phase endocytosis (fluorescent dextran uptake): Correction; also recorded: increases fluid-phase endocytosis
[3]
  Autofluorescent inclusions (fluorescence intensity, cingulate cortex): reduces
[4]
  Caveolin-1 transport to the plasma membrane: restores
[5]
  Cholesterol distribution at the plasma membrane: corrects cholesterol distribution
[6]
  Cell migration (rate of filling scratch gap): increases cell migration
[6]; listed as Carbenoxolone
  Cell migration (rate of filling scratch gap): normalizes
[7]; CLN3-R (CLN3-expressing) MBEC, CBX 50 μM for 2 h
  Cdc42 activity level: does not alter
[7]; CBX 50 μM for 2 h
  Cdc42 activity: effectively normalized
[7]; CBX 50 μM for 2 h, listed as Carbenoxolone
  Cdc42 activity: significantly reduces
[7]; Cln3−/− MBECs, CBX 25 μM for 2 hours vs saline (mock)
  Cdc42-GTP levels: corrects; also recorded: reduces
